ChEMBL document CHEMBL1201862, “PubChem BioAssay data set” (2004)
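Cells were grown in 96-well plates and exposed to each compound for 48 hours at five concentrations; endpoints were interpolated linearly between bracketing concentrations, or set to the highest concentration if not reached. Abbreviation: GI50, concentration required for 50% inhibition of growth.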 Active and inactive are the calls of the source. Rule as the data show it: active = GI50 up to about 1.1 µM and inactive = higher.

Experiments:
Test in all cases: NCI-60 cell line screen, 48 h
[1] = test system: OVCAR-3
[2] = test system: NCI-H23
[3] = test system: HL-60
[4] = test system: MDA-MB-231
[5] = test system: OVCAR-8
[6] = test system: RPMI-8226
[7] = test system: U-251
[8] = test system: PC-3
[9] = test system: OVCAR-5
[10] = test system: SK-MEL-28
[11] = test system: UACC-62
[12] = test system: SK-MEL-5
[13] = test system: NCI-H226
[14] = test system: IGROV-1
[15] = test system: Hs-578T
[16] = test system: HCT-116
[17] = test system: HT-29
[18] = test system: SNB-75
[19] = test system: K562

Measured: GI50

CC1NC(C(=O)O)Cc2cc(O)c(O)cc21 (centres undefined)
inactive: [1] > 100 µM | [2] > 100 µM | [3] > 100 µM | [4] > 100 µM | [5] > 100 µM | [6] > 100 µM | [7] > 100 µM | [8] > 100 µM | [9] > 100 µM | [10] > 100 µM | [11] > 100 µM | [12] > 100 µM | [13] > 100 µM | [14] > 100 µM | [15] > 100 µM | [16] > 100 µM | [17] > 100 µM

Cc1ccc(OC2CC(n3cnc4ncnc(Cl)c43)OC2Oc2ccc(C)cc2)cc1 (centres undefined)
inactive: [1] 14.6 µM | [2] 24.8 µM | [3] 3.77 µM | [4] 17.5 µM | [18] 15.6 µM | [5] 8.32 µM | [6] 2.81 µM | [7] 36.1 µM | [8] 16.4 µM | [9] 22 µM | [10] > 100 µM | [11] 14.1 µM | [12] 18.5 µM | [13] 13.7 µM | [14] 17 µM | [15] 21.8 µM | [16] 9.77 µM | [17] 16.9 µM

COc1ccc(C=O)cc1Oc1ccc(C[C@H]2c3c(cc(OC)c4c3Oc3cc5c(cc3O4)CCN(C)C5=O)CCN2C)cc1
inactive: [1] 8.43 µM | [2] 7.14 µM | [3] 8.85 µM | [4] 7.6 µM | [18] 7.29 µM | [5] 7.87 µM | [6] 5.04 µM | [19] 6.05 µM | [7] 9.51 µM | [8] 8.75 µM | [9] 12.1 µM | [10] 10.6 µM | [12] 7.33 µM | [13] 8.59 µM | [14] 7.16 µM | [15] 8.04 µM | [16] 7.05 µM | [17] 7.52 µM

N#CC1(C#N)[C@@H]2CCC=C(Sc3ccccc3)[C@@H]21
inactive: [1] 17.2 µM | [3] 8.59 µM | [4] 22.2 µM | [18] 20.9 µM | [5] 16 µM | [6] 12.9 µM | [19] 6.71 µM | [7] 16.1 µM | [8] 14.3 µM | [9] 17.8 µM | [10] 15 µM | [11] 18.4 µM | [12] 13.9 µM | [13] 13.9 µM | [14] 19.8 µM | [15] > 100 µM | [16] 15.7 µM | [17] 18.6 µM

Cc1nc2c(Cl)cc(Cl)cc2c(Cl)c1CCCl
inactive: [1] > 100 µM | [2] > 100 µM | [3] 55.2 µM | [4] 69.5 µM | [18] 42.9 µM | [5] > 100 µM | [6] 57.5 µM | [19] 80.5 µM | [7] > 100 µM | [8] 60.5 µM | [9] 78.3 µM | [10] > 100 µM | [11] 79.6 µM | [12] 45.8 µM | [13] > 100 µM | [14] > 100 µM | [15] 51.4 µM | [16] 76 µM | [17] 78.7 µM

c1ccc(/N=C(\N2CCOCC2)N(CCN2CCOCC2)c2ccccc2)cc1
inactive: [1] > 100 µM | [2] > 100 µM | [3] > 10 µM | [4] > 100 µM | [18] > 100 µM | [5] > 100 µM | [6] > 100 µM | [19] > 100 µM | [7] > 100 µM | [8] > 100 µM | [10] > 100 µM | [11] > 100 µM | [12] > 100 µM | [13] > 100 µM | [14] > 100 µM | [15] > 100 µM | [16] 98.2 µM | [17] > 100 µM

CCCCC/C(=N\c1[nH]cnc1C(N)=O)OCC
inactive: [1] > 100 µM | [2] > 100 µM | [3] > 100 µM | [4] > 100 µM | [5] > 100 µM | [6] > 100 µM | [19] > 100 µM | [7] > 100 µM | [8] > 100 µM | [9] > 100 µM | [10] > 100 µM | [11] > 100 µM | [12] > 100 µM | [13] > 100 µM | [14] > 100 µM | [15] > 100 µM | [16] > 100 µM | [17] > 100 µM

COc1ccc2c3c(c(=O)n(C)c2c1OC)C=CC(C)(C)O3
inactive: [1] 48 µM | [2] 22.8 µM | [3] 11.2 µM | [4] 22 µM | [18] 2.78 µM | [5] 23.9 µM | [6] 10 µM | [7] 30.6 µM | [8] 33.7 µM | [9] 82 µM | [10] 41.9 µM | [11] 37.8 µM | [12] 13.3 µM | [13] 22.2 µM | [14] 36.1 µM | [15] 23.5 µM | [16] 29.9 µM | [17] 24 µM
